This is an account of results in patent publication US8962596B2 (Array BioPharma Inc., priority 2010, dated 2015).

Holding throughout (type): biochemical
One test has as its target T1, JAK2 (Homo sapiens, UniProt O60674).
T1 construct: purchased Invitrogen Corporation, Carlsbad, Calif; PV4288
Nature of the test: JAK2 Inhibition Assay (Omnia kinase fluorescence peptide substrate assay). The note with it: averaged IC50 ranges; assay of Example C; 25 μM (Km app) or 1 mM ATP, 5 nM JAK2. Put shortly:
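5 nM JAK2 phosphorylated 10 μM Omnia Y7 peptide with ATP at 25 μM (Km app) or 1 mM, in 25 mM HEPES pH 7.4, 10 mM MgCl2, 0.01% Triton X-100, 1 mM DTT, 2% DMSO. Fluorescence (360/485 nm) was read every 50 s for 45 min. 10-point 3-fold series from 10 μM; POC versus uninhibited and background controls, 4-parameter logistic IC50.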

Another test deals with T2, Human Tyk2 kinase domain (Homo sapiens, UniProt P29597).
T2 construct: comprising amino acids 886 to 1187 with 10 additional histidine residues; 10xHis (histidine tag) (C, cleaved yes); made in house
T2 sequence (P29597 886-1187): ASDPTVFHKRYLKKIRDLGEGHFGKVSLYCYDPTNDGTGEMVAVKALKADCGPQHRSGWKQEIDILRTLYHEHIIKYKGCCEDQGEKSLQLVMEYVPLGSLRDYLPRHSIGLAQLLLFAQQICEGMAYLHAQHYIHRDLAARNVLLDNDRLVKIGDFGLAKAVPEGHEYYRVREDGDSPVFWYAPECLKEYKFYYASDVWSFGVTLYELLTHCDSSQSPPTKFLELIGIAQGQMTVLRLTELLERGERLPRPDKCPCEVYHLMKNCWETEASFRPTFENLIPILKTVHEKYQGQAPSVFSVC
The experiment in a line: Tyk2 Inhibition Assay (Omnia kinase fluorescence peptide substrate assay). The note with it: averaged IC50 ranges; assay of Example A; 10 μM (Km app) or 1 mM ATP, 2 nM Tyk2. Put shortly:
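2 nM His-tag-cleaved kinase domain (aa 886–1187) with 8 μM Omnia Y12 peptide, 10 μM (Km app) or 1 mM ATP, pH 7.4 HEPES/10 mM MgCl2, 2% DMSO. Fluorescence (ex 360/em 485 nm) every 50 s for 45 min; IC50 from 4-parameter fit of POC, top dose 10 μM.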

The target of a further test is T3, JAK1 (Homo sapiens, UniProt P23458).
T3 construct: purchased Invitrogen Corporation, Carlsbad, Calif; PV4775
T3 sequence (P23458 whole entry): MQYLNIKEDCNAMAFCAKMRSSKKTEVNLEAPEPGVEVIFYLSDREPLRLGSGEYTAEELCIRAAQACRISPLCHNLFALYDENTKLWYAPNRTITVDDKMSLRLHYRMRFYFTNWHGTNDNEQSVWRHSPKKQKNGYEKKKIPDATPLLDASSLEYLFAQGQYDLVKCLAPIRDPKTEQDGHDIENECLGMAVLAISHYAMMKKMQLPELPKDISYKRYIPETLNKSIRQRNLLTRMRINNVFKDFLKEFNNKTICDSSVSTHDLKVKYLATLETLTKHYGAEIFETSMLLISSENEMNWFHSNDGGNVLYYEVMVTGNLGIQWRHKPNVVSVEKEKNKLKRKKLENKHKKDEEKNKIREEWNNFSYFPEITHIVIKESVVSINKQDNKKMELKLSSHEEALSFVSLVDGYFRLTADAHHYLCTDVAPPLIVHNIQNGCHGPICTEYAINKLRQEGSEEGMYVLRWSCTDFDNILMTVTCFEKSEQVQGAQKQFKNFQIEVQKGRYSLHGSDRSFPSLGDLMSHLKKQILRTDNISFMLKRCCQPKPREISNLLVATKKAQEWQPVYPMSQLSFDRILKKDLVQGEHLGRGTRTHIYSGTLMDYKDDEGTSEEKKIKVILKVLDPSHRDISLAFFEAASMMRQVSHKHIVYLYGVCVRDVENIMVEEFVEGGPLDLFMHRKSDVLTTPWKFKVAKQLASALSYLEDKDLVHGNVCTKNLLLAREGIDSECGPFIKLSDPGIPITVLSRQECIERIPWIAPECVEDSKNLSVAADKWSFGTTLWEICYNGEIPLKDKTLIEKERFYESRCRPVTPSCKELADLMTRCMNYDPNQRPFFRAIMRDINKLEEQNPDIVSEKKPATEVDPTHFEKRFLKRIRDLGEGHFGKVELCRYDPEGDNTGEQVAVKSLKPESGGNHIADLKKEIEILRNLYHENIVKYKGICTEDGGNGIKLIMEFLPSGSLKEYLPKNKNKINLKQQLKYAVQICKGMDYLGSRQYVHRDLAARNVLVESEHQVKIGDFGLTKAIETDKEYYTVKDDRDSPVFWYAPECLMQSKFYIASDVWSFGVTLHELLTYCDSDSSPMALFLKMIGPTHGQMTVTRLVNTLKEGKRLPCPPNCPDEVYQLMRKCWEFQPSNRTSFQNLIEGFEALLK
Nature of the test: JAK1 Inhibition Assay (Omnia kinase fluorescence peptide substrate assay). The note with it: averaged IC50 ranges; assay of Example B; 40 μM (Km app) or 1 mM ATP, 15 nM JAK1.

The next test deals with T4, JAK3 (Homo sapiens, UniProt P52333).
T4 construct: purchased Invitrogen Corporation, Carlsbad, Calif; PV4080
T4 sequence (P52333 1-1124): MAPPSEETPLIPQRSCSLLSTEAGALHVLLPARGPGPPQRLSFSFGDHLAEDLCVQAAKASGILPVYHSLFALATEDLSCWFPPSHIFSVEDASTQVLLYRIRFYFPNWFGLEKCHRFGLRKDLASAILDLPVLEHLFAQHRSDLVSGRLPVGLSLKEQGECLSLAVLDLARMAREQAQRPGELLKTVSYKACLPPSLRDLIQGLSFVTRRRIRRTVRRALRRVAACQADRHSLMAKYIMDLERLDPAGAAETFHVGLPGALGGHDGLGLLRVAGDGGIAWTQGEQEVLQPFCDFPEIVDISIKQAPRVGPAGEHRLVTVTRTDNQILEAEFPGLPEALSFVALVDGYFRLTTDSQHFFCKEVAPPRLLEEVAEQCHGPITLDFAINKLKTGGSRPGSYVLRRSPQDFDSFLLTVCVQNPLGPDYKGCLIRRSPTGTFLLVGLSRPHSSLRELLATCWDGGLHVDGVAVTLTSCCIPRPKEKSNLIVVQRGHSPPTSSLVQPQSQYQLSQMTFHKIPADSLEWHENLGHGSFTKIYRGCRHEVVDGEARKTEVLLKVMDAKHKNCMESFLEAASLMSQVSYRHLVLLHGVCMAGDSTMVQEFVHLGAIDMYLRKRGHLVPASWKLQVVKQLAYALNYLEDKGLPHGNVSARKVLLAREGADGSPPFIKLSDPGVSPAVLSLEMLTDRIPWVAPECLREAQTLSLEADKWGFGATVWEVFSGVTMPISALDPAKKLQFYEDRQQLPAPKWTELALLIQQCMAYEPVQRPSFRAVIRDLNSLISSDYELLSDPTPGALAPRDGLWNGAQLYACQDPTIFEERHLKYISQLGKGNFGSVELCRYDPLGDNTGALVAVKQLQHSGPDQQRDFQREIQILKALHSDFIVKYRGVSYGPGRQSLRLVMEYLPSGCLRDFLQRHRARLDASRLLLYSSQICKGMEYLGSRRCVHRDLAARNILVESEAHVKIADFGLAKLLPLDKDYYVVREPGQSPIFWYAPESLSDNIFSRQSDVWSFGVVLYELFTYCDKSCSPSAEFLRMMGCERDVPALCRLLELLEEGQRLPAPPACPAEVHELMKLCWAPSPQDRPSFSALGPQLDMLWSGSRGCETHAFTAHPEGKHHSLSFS
The experiment in a line: JAK3 Inhibition Assay (Omnia kinase fluorescence peptide substrate assay). The note with it: averaged IC50 ranges; assay of Example D; 10 μM (Km app) or 1 mM ATP, 2.5 nM JAK3. Put shortly: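 Kinase at 2.5 nM with 10 µM Omnia Y7 peptide and 10 µM (Km app) or 1 mM ATP in 25 mM HEPES pH 7.4, 10 mM MgCl2, 1 mM DTT, 0.01% Triton X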

Some results are limits rather than exact numbers.

T1 sequence (O60674 whole entry): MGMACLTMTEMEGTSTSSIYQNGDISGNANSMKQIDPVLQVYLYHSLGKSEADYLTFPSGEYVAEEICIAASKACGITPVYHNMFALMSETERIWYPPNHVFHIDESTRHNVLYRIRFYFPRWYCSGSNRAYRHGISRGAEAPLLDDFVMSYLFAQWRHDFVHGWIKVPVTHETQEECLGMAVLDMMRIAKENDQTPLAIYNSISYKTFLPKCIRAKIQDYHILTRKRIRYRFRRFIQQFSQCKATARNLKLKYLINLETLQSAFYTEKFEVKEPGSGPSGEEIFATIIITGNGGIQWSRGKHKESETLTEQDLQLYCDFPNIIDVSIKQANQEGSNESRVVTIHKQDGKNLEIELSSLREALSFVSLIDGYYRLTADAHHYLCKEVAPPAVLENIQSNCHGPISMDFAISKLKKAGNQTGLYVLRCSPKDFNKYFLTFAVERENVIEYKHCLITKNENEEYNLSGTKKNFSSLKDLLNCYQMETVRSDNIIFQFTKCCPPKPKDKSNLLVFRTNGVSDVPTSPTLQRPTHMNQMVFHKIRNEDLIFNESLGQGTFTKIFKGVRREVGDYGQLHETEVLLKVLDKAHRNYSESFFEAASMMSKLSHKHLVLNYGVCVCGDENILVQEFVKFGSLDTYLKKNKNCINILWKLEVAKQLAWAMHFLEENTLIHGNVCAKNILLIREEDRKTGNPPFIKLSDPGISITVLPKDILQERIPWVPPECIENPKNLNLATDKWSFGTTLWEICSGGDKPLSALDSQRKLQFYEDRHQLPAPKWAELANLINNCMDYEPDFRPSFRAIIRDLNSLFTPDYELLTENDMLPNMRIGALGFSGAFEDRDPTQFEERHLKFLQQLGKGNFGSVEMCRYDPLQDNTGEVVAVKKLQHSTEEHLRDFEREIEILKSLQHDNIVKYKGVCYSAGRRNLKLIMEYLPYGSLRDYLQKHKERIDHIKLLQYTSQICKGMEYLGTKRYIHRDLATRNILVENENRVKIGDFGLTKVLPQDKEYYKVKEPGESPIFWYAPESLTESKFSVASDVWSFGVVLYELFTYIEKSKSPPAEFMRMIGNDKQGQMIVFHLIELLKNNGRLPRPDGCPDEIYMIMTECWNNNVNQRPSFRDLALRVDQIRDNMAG

Take `CC(=O)N1CC(CC#N)(n2cc(-c3nc(-c4cnn(C)c4)cc4nccn34)cn2)C1` [Example 63, 2-(1-Acetyl-3-(4-(7-(1-methyl-1H-pyrazol-4-yl)imidazo[1,2-c]pyrimidin-5-yl)-1H-pyrazol-1-yl)azetidin-3-yl)acetonitrile]: the IC50 against JAK2 was more than 1000 nM; against Human Tyk2 kinase domain, 100 to 1000 nM; on JAK1, more than 1000 nM; at JAK3, more than 1000 nM.

For the compound `Cn1cc(-c2cc3nccn3c(-c3cnn(C(CC#N)C(C)(C)C)c3)n2)cn1` (stereo not drawn) [Example 18, 4,4-dimethyl-3-(4-(7-(1-methyl-1H-pyrazol-4-yl)imidazo[1,2-c]pyrimidin-5-yl)-1H-pyrazol-1-yl)pentanenitrile], the IC50 was 100 to 1000 nM on JAK2, 10 to 100 nM at Human Tyk2 kinase domain, 100 to 1000 nM at JAK1 and more than 1000 nM on JAK3.

Take `C#CCN1CC(CC#N)(n2cc(-c3nc(-c4cnn(C)c4)cc4nccn34)cn2)C1` [Example 76, 2-(3-(4-(7-(1-methyl-1H-pyrazol-4-yl)imidazo[1,2-c]pyrimidin-5-yl)-1H-pyrazol-1-yl)-1-(prop-2-ynyl)azetidin-3-yl)acetonitrile]: the IC50 against JAK2 was 100 to 1000 nM; on Human Tyk2 kinase domain, 10 to 100 nM; at JAK1, 100 to 1000 nM; against JAK3, more than 1000 nM.

On to `Cc1nn(CCC#N)cc1-c1nc(-c2cnn(C)c2)cc2nccn12` [Example 106, 3-(3-methyl-4-(7-(1-methyl-1H-pyrazol-4-yl)imidazo[1,2-c]pyrimidin-5-yl)-1H-pyrazol-1-yl)propanenitrile], for which the IC50 on JAK2 was 100 to 1000 nM; against Human Tyk2 kinase domain, 100 to 1000 nM; against JAK1, more than 1000 nM; at JAK3, more than 1000 nM.

Take `Cn1cc(-c2cc3nccn3c(-c3cnn(C4(CC#N)CN(c5ncccn5)C4)c3)n2)cn1` [Example 68, 2-(3-(4-(7-(1-Methyl-1H-pyrazol-4-yl)imidazo[1,2-c]pyrimidin-5-yl)-1H-pyrazol-1-yl)-1-(pyrimidin-2-yl)azetidin-3-yl)acetonitrile]: the concentration for half-maximal inhibition (IC50) against JAK2 was more than 1000 nM; at Human Tyk2 kinase domain it was 100 to 1000 nM; against JAK1 it was more than 1000 nM; on JAK3, more than 1000 nM.

As to `N#CCC(C1CC1)n1cc(-c2nc(-c3cnc4n3CCNC4)cc3nccn23)cn1` (stereo not drawn) [Example 56, 3-Cyclopropyl-3-(4-(7-(5,6,7,8-tetrahydroimidazo[1,2-a]pyrazin-3-yl)imidazo[1,2-c]pyrimidin-5-yl)-1H-pyrazol-1-yl)propanenitrile], the 50% inhibitory concentration (IC50) is 100 to 1000 nM on JAK2, 100 to 1000 nM at Human Tyk2 kinase domain, more than 1000 nM on JAK1 and more than 1000 nM on JAK3.

On to `Cc1ncc(-c2cc3nccn3c(-c3cnn(C4(CC#N)CN(S(=O)(=O)C(F)(F)F)C4)c3)n2)s1` [Example 139, 2-(3-(4-(7-(2-methylthiazol-5-yl)imidazo[1,2-c]pyrimidin-5-yl)-1H-pyrazol-1-yl)-1-(trifluoromethylsulfonyl)azetidin-3-yl)acetonitrile], for which the IC50 at JAK2 was 10 to 100 nM; at Human Tyk2 kinase domain, less than 10 nM; at JAK1, 10 to 100 nM; against JAK3, more than 1000 nM.

Turning to `CC#CCN1CC(CC#N)(n2cc(-c3nc(-c4cnn(C)c4)cc4nccn34)cn2)C1` [Example 75, 2-(1-(but-2-ynyl)-3-(4-(7-(1-methyl-1H-pyrazol-4-yl)imidazo[1,2-c]pyrimidin-5-yl)-1H-pyrdzol-1-yl)azetidin-3-yl)acetonitrile], the IC50 against JAK2 is more than 1000 nM; against Human Tyk2 kinase domain, 100 to 1000 nM; against JAK1, more than 1000 nM; against JAK3, more than 1000 nM.

For the compound `Cn1cc(-c2cc3ncc(Cl)n3c(-c3cnn(C4(CC#N)CN(CC(F)(F)F)C4)c3)n2)cn1` [Example 90, 2-(3-(4-(3-Chloro-7-(1-methyl-1H-pyrazol-4-yl)imidazo[1,2-c]pyrimidin-5-yl)-1H-pyrazol-1-yl)-1-(2,2,2-trifluoroethyl)azetidin-3-yl)acetonitrile], the IC50 is 10 to 100 nM against JAK2, less than 10 nM against Human Tyk2 kinase domain, 100 to 1000 nM at JAK1 and 100 to 1000 nM on JAK3.

As for `Cn1cc(-c2cc3nccn3c(-c3cnn(C4(CC#N)CC5(CCCCC5)C4)c3)n2)cn1` [Example 151, 2-(2-(4-(7-(1-methyl-1H-pyrazol-4-yl)imidazo[1,2-c]pyrimidin-5-yl)-1H-pyrazol-1-yl)spiro[3.5]nonan-2-yl)acetonitrile], the concentration for half-maximal inhibition (IC50) against JAK2 was 10 to 100 nM; against Human Tyk2 kinase domain, less than 10 nM; on JAK1, 100 to 1000 nM; at JAK3 it was 100 to 1000 nM.

With `N#CCC(C1CC1)n1cc(-c2nc(-c3ccc4c(c3)CCNC4)cc3nccn23)cn1` (stereo not drawn) [Example 52, 3-Cyclopropyl-3-(4-(7-(1,2,3,4-tetrahydroisoquinolin-6-yl)imidazo[1,2-c]pyrimidin-5-yl)-1H-pyrazol-1-yl)propanenitrile], the IC50 was in the range of 10 to 100 nM at JAK2, 10 to 100 nM at Human Tyk2 kinase domain, 10 to 100 nM against JAK1 and 100 to 1000 nM on JAK3.

On to `N#CCC(C1CC1)n1cc(-c2nc(C(=O)Nc3ccccn3)cc3nccn23)cn1` (stereo not drawn) [Example 125, 5-(1-(2-cyano-1-cyclopropylethyl)-1H-pyrazol-4-yl)-N-(pyridin-2-yl)imidazo[1,2-c]pyrimidine-7-carboxamide], for which the half-inhibitory concentration (IC50) at JAK2 is more than 1000 nM; against Human Tyk2 kinase domain, 100 to 1000 nM; against JAK1, 100 to 1000 nM; against JAK3, more than 1000 nM.

Take `Cn1cc(-c2cc3nccn3c(-c3cnn(C(CC#N)C4CCCC4)c3)n2)cn1` (stereo not drawn) [Example 17, 3-cyclopentyl-3-(4-(7-(1-methyl-1H-pyrazol-4-yl)imidazo[1,2-c]pyrimidin-5-yl)-1H-pyrazol-1-yl)propanenitrile]: the concentration for half-maximal inhibition (IC50) is 10 to 100 nM against JAK2, less than 10 nM at Human Tyk2 kinase domain, 10 to 100 nM at JAK1 and more than 1000 nM against JAK3.

`N#CCC(C1CC1)n1cc(-c2nc(-c3cn[nH]c3)cc3nccn23)cn1` (stereo not drawn) [Example 33, 3-(4-(7-(1H-pyrazol-4-yl)imidazo[1,2-c]pyrimidin-5-yl)-1H-pyrazol-1-yl)-3-cyclopropylpropanenitrile]: the half-inhibitory concentration (IC50) on JAK2 was 100 to 1000 nM; on Human Tyk2 kinase domain, 10 to 100 nM; against JAK1, 100 to 1000 nM; against JAK3, more than 1000 nM.

As to `Cn1cc(-c2cc3nccn3c(-c3cnn(C(CC#N)c4ccccn4)c3)n2)cn1` (stereo not drawn) [Example 6, 3-(4-(7-(1-methyl-1H-pyrazol-4-yl)imidazo[1,2-c]pyrimidin-5-yl)-1H-pyrazol-1-yl)-3-(pyridin-2-yl)propanenitrile], the half-maximal inhibitory concentration (IC50) against JAK2 was 10 to 100 nM; on Human Tyk2 kinase domain, 10 to 100 nM; against JAK1, 100 to 1000 nM; against JAK3, more than 1000 nM.

A word on the IC50: it is the concentration needed to halve the response being measured. Lower therefore signals greater potency.
